In patent US20240239753A1, “METHOD FOR CRYSTALLIZATION OF AROMATIC AMINO ACIDS, ENABLING SUSTAINABLE CYCLE OF AMMONIA” (CJ CheilJedang Corporation, priority 2021, published 2024):

Test: Analysis of solubility of L-tryptophan depending on pH of solution
Assay type: physicochemical
Conditions: distilled water/ammonia water mixtures, 30° C., stirring 12 hours or more, supernatant by HPLC; pH of the solution 10 or more (FIG. 2)
Procedure: Measurement of solubility of L-tryptophan amino acids was performed in a 1 L jacket reactor made of glass. After mixing distilled water and ammonia water in the 1 L jacket reactor at various ratios, an excess of L-tryptophan crystals was added and they were stirred, thereby preparing a reaction solution comprising L-tryptophan crystals. After that, while maintaining the internal temperature of the reactor at 30° C. constantly using freezing/heating circulation apparatus (model F35, Julabo, Germany), these conditions were applied with stirring for 12 hours or more. Then, when the stirring was stopped and all L-tryptophan crystals were sunk, a part of clear supernatant was transferred to a syringe sampler equipped with a 0.45 μm syringe filter. At this time, the pH of the corresponding solution was measured suing a pH measuring instrument (model S220, Mettler Toledo, US). The concentration of the corresponding sample was measured using HPLC, after diluting with tertiary distilled water using a volumetric flask. The concentration of the supernatant sample was assumed with the solubility, and the change in solubility of L-tryptophan depending on pH of solution was shown in FIG. 2. In other words, the pH of the solution could be confirmed that the solubility of L-tryptophan increased from the time when the pH of the solution was to be 10 or more.

change in solubility of L-tryptophan depending on pH of solution: increased
SMILES: N[C@@H](Cc1c[nH]c2ccccc12)C(=O)O [L-tryptophan]
